# Target: P2X7 (Homo sapiens (Human), UniProt Q99572)
# Test: P2X7 antagonism in human PBMCs (LPS + Bz-ATP induced IL-1β release, ELISA);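 further: PBMCs from donor human blood, with a further 1.5 h incubation of the cells in the assay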
# Assay type: cell-based
# Details: compound 10 μM, LPS 30 ng/ml, Bz-ATP 0.5 mM
# P2X7, sequence (Q99572 whole entry): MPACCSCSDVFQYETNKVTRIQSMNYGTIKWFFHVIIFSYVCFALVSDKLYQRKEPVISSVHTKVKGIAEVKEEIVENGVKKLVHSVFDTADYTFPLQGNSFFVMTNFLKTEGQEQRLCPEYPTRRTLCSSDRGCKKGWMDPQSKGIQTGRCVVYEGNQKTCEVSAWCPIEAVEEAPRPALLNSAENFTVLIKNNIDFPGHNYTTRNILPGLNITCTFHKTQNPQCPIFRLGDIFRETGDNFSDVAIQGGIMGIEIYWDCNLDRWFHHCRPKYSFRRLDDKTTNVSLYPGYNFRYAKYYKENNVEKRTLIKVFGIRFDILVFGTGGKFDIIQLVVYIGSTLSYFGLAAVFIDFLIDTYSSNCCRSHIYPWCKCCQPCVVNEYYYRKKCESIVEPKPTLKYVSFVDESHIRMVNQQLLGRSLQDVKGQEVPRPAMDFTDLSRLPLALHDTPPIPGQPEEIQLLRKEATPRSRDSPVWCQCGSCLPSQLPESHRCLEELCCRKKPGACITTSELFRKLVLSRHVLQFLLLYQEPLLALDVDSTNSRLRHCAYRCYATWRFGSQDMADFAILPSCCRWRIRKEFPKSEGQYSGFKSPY
row,SMILES,PBMC 10 μM (% control)
1,"CC1Cc2c(nnn2-c2ncc(F)cn2)CN1C(=O)c1ccc(F)c(Cl)c1Cl (stereo not drawn) [Example 213, 5-[(2,3-Dichloro-4-fluorophenyl)carbonyl]-1-(5-fluoropyrimidin-2-yl)-6-methyl-4,5,6,7-tetrahydro-1H-[1,2,3]triazolo[4,5-c]pyridine]",0.3 % control
2,"C[C@@H]1Cc2c(nnn2-c2ncc(F)cn2)CN1C(=O)c1cccc(C(F)(F)F)c1F [Example 219, (6R)-1-(5-Fluoropyrimidin-2-yl)-5-{[2-fluoro-3-(trifluoromethyl)phenyl]carbonyl}-6-methyl-4,5,6,7-tetrahydro-1H-[1,2,3]triazolo[4,5-c]pyridine]",76.5 % control
3,"C[C@H]1Cc2c(nnn2-c2ncc(F)cn2)CN1C(=O)c1cccc(C(F)(F)F)c1F [Example 220, (6S)-1-(5-Fluoropyrimidin-2-yl)-5-{[2-fluoro-3-(trifluoromethyl)phenyl]carbonyl}-6-methyl-4,5,6,7-tetrahydro-1H-[1,2,3]triazolo[4,5-c]pyridine]",15.1 % control
4,"Cc1cccc(-n2nnc3c2CCN(C(=O)c2cccc(Cl)c2Cl)C3C)n1 (stereo not drawn) [Example 233, (2,3-dichlorophenyl)(4-methyl-1-(6-methylpyridin-2-yl)-6,7-dihydro-1H-[1,2,3]triazolo[4,5-c]pyridin-5(4H)-yl)methanone]",−0.1 % control
5,"Cc1ccnc(-n2nnc3c2CCN(C(=O)c2cccc(Cl)c2Cl)C3C)c1 (stereo not drawn) [Example 237, (2,3-dichlorophenyl)(4-methyl-1-(4-methylpyridin-2-yl)-6,7-dihydro-1H-[1,2,3]triazolo[4,5-c]pyridin-5(4H)-yl)methanone]",−5.1 % control
6,"CC1Cc2c(nnn2-c2ccccc2)C(C)N1C(=O)c1cccc(C(F)(F)F)c1Cl (stereo not drawn) [Example 240, (2-Chloro-3-(trifluoromethyl)phenyl)(4,6-dimethyl-1-phenyl-6,7-dihydro-1H-[1,2,3]triazolo[4,5-c]pyridin-5(4H)-yl)methanone]",−8.9 % control
7,"CC1Cc2c(nnn2-c2ccc(F)cc2)C(C)N1C(=O)c1cccc(C(F)(F)F)c1Cl (stereo not drawn) [Example 243, (2-Chloro-3-(trifluoromethyl)phenyl)(1-(4-fluorophenyl)-4,6-dimethyl-6,7-dihydro-1H-[1,2,3]triazolo[4,5-c]pyridin-5(4H)-yl)methanone]",1.0 % control
8,"O=C(c1ccc(Cl)cc1Cl)N1CCc2c(nnn2-c2ncccn2)C1 [Example 257, (2,4-dichlorophenyl)(1-(pyrimidin-2-yl)-6,7-dihydro-1H-[1,2,3]triazolo[4,5-c]pyridin-5(4H)-yl)methanone]",7.1 % control
9,"Cc1cccnc1-n1nnc2c1CCN(C(=O)c1cccc(C(F)(F)F)c1Cl)C2C (stereo not drawn) [Example 259, (2-Chloro-3-(trifluoromethyl)phenyl)(4-methyl-1-(3-methylpyridin-2-yl)-6,7-dihydro-1H-[1,2,3]triazolo[4,5-c]pyridin-5(4H)-yl)methanone]",−3.5 % control
10,"CC1c2ncn(-c3ccc(F)cn3)c2CCN1C(=O)c1ccc(C(C)(C)C)cc1 (stereo not drawn) [Example 265, (4-(tert-butyl)phenyl)(1-(5-fluoropyridin-2-yl)-4-methyl-6,7-dihydro-1H-imidazo[4,5-c]pyridin-5(4H)-yl)methanone]",76.5 % control
11,"Cc1c(C(=O)N2CCc3c(nnn3-c3ncccn3)C2C)cccc1C(F)(F)F (stereo not drawn) [Example 282, (4-methyl-1-(pyrimidin-2-yl)-6,7-dihydro-1H-[1,2,3]triazolo[4,5-c]pyridin-5(4H)-yl)(2-methyl-3-(trifluoromethyl)phenyl)methanone]",−5.5 % control
12,"C[C@@H]1Cc2c(nnn2-c2ccc(F)cc2)[C@@H](C)N1C(=O)c1cccc(C(F)(F)F)c1Cl [Example 284, (2-chloro-3-(trifluoromethyl)phenyl)((4R,6R)-1-(4-fluorophenyl)-4,6-dimethyl-6,7-dihydro-1H-[1,2,3]triazolo[4,5-c]pyridin-5(4H)-yl)methanone]",18.2 % control
13,"C[C@H]1Cc2c(nnn2-c2ccc(F)cc2)[C@H](C)N1C(=O)c1cccc(C(F)(F)F)c1Cl [Example 285, (2-chloro-3-(trifluoromethyl)phenyl)((4S,6S)-1-(4-fluorophenyl)-4,6-dimethyl-6,7-dihydro-1H-[1,2,3]triazolo[4,5-c]pyridin-5(4H)-yl)methanone]",−2.6 % control
14,"C[C@@H]1Cc2c(nnn2-c2ccc(F)cc2)[C@H](C)N1C(=O)c1cccc(C(F)(F)F)c1Cl [Example 286, (2-chloro-3-(trifluoromethyl)phenyl)((4S,6R)-1-(4-fluorophenyl)-4,6-dimethyl-6,7-dihydro-1H-[1,2,3]triazolo[4,5-c]pyridin-5(4H)-yl)methanone]",5.8 % control
15,"C[C@@H]1c2nnn(-c3ccc(F)cc3)c2C[C@H](C)N1C(=O)c1cccc(C(F)(F)F)c1Cl [Example 287, (2-chloro-3-(trifluoromethyl)phenyl)((4R,6S)-1-(4-fluorophenyl)-4,6-dimethyl-6,7-dihydro-1H-[1,2,3]triazolo[4,5-c]pyridin-5(4H)-yl)methanone]",−4.1 % control
16,"C[C@H]1Cc2c(nnn2-c2ccccc2)CN1C(=O)c1cccc(C(F)(F)F)c1Cl [Example 288, (S)-(2-chloro-3-(trifluoromethyl)phenyl)(6-methyl-1-phenyl-6,7-dihydro-1H-[1,2,3]triazolo[4,5-c]pyridin-5(4H)-yl)methanone]",4.4 % control
17,"CC1Cc2c(nnn2-c2ccccc2)CN1C(=O)c1cccc(C(F)(F)F)c1Cl (stereo not drawn) [Example 290, (2-chloro-3-(trifluoromethyl)phenyl)(6-methyl-1-phenyl-6,7-dihydro-1H-[1,2,3]triazolo[4,5-c]pyridin-5(4H)-yl)methanone]",−11.2 % control
18,"C[C@@H]1Cc2c(nnn2-c2ccn[nH]2)[C@@H](C)N1C(=O)c1cccc(C(F)(F)F)c1Cl [Example 296, (2-chloro-3-(trifluoromethyl)phenyl)((4R,6R)-4,6-dimethyl-1-(1H-pyrazol-5-yl)-6,7-dihydro-1H-[1,2,3]triazolo[4,5-c]pyridin-5(4H)-yl)methanone]",3.6 % control
19,"C[C@@H]1Cc2c(nnn2-c2ccn[nH]2)[C@H](C)N1C(=O)c1cccc(C(F)(F)F)c1Cl [Example 297, (2-chloro-3-(trifluoromethyl)phenyl)((4S,6R)-4,6-dimethyl-1-(1H-pyrazol-5-yl)-6,7-dihydro-1H-[1,2,3]triazolo[4,5-c]pyridin-5(4H)-yl)methanone]",2.6 % control
20,"Cc1ccnc(-n2nnc3c2CCN(C(=O)c2cccc(C(F)(F)F)c2Cl)C3C)c1 (stereo not drawn) [Example 299, (2-chloro-3-(trifluoromethyl)phenyl)(4-methyl-1-(4-methylpyridin-2-yl)-6,7-dihydro-1H-[1,2,3]triazolo[4,5-c]pyridin-5(4H)-yl)methanone]",1.5 % control
21,"C[C@H]1Cc2c(nnn2-c2ncc(F)cn2)CN1C(=O)c1cccc(C(F)(F)F)c1 [Example 304, (S)-(1-(5-fluoropyrimidin-2-yl)-6-methyl-6,7-dihydro-1H-[1,2,3]triazolo[4,5-c]pyridin-5(4H)-yl)(3-(trifluoromethyl)phenyl)methanone]",3.2 % control

# Reference: patent publication US9464084B2, “P2X7 modulators” (Janssen Pharmaceutica NV, priority 2013, dated 2016)
